Earlier results in US20250333423A1, “SMALL MOLECULE MODULATORS OF GP130 SIGNALING PATHWAYS” (CarthroniX, Inc., priority 2022, published 2025).

How the values were obtained:
gp130 = biological target: T1, gp130 (Homo sapiens, UniProt P40189)
T1 sequence (P40189 23-918): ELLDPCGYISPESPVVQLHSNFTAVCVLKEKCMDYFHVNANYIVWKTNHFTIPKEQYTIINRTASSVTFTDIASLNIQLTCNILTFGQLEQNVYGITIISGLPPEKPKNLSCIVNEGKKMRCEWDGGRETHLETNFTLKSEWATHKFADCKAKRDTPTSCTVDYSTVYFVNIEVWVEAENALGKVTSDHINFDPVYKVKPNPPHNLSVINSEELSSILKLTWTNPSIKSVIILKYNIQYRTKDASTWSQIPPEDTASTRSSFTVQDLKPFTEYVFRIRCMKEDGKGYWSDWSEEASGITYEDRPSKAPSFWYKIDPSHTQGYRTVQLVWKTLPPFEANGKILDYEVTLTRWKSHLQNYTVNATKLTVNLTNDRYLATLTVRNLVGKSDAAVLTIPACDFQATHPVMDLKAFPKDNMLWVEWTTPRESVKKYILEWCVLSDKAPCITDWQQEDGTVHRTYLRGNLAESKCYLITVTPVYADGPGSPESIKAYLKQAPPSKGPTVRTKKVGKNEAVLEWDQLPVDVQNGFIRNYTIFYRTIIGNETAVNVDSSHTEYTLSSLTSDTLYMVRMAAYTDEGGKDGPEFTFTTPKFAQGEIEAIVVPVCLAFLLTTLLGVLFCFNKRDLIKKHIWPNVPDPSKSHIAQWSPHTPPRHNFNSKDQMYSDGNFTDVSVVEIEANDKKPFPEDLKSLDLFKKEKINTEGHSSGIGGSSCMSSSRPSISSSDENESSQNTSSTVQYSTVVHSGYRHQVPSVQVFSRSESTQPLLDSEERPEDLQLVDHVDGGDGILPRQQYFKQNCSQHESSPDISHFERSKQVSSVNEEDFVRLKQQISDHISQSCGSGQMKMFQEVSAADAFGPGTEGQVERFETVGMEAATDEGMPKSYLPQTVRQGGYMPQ

Brc1ccc(Nc2nc(-c3ccccc3)cs2)cc1 [RCGD 423]
interaction with gp130 (gp130; in vitro): interacts with the extracellular region of gp130
formation of gp130 homodimers (gp130; ligand-independent): promotes the formation of active, ligand-independent gp130 homodimers
prevention of cartilage degeneration (rat model of OA): remarkable ability to prevent cartilage degeneration
